pIC50, pKd: −log10 of the molar value. Where two headings read alike, the source gives them in different places. Numbered stars: 1 amine (or outer) side, 2 acyl side, 3 side chain; on linkers, the order of the positions; unused ones are H or OH. Bridge positions count the residues as written; N and C are the ends. Square brackets hold non-standard residues; d marks the D form. Peptide text beside a SMILES is read from it. * marks the point of attachment. Trp(βS-Me,7-OMe) = COc1cccc2c([C@H](C)[C@H](N)C(=O)O)c[nH]c12; dPro(trans-4-NMe3+) = C[N+](C)(C)[C@@H]1CN[C@@H](C(=O)O)C1; Phe(4-SO2NH2) = N[C@@H](Cc1ccc(S(N)(=O)=O)cc1)C(=O)O; Trp(7-CN) = N#Cc1cccc2c(C[C@H](N)C(=O)O)c[nH]c12; Trp(7-Cl) = N[C@@H](Cc1c[nH]c2c(Cl)cccc12)C(=O)O; X62 = O=C(O)c1ccc(C[C@H](N[*:1])C(=O)[*:2])cc1Cl; Phe(4-CONH2) = NC(=O)c1ccc(C[C@H](N)C(=O)O)cc1; Phe(4-COOH) = N[C@@H](Cc1ccc(C(=O)O)cc1)C(=O)O; Trp(7-aza) = N[C@@H](Cc1c[nH]c2ncccc12)C(=O)O; Asn(3S-OH) = NC(=O)[C@@H](O)[C@H](N)C(=O)O; Pip(5R-OH) = O=C(O)[C@@H]1CC[C@@H](O)CN1; X1 = O=C([C@@H]1CC[C@H](N[*:1])C1)[*:2]; X53 = O=C([C@H](Cc1ccncc1F)N[*:1])[*:2]; X40 = CCN([C@H](C)C(=O)[*:2])[*:1]; Pip(4-aza) = O=C(O)[C@@H]1CNCCN1; 4Pal = N[C@@H](Cc1ccncc1)C(=O)O; NMeE = CN[C@@H](CCC(=O)O)C(=O)O; dHyp = O=C(O)[C@H]1C[C@H](O)CN1; αMeS = C[C@](N)(CO)C(=O)O; Carboxymethyl = O=C(O)C*; Nle = CCCC[C@H](N)C(=O)O; Sar = CNCC(=O)O
Experiments:
[1] = target: T1, TNFα-induced NF-κB signal transduction pathway (TNFR1 signaling) in THP-1 cells (Homo sapiens, UniProt P19438); experiment: THP-1 Lucia NF-κB reporter cell assay, inhibition of TNFα-induced NF-κB signaling; type: cell-based; details: THP-1 NF-κB Lucia reporter cells, 10 ng/mL TNFα, 16-18 h, secreted luciferase; read-out: THP-1 IC50
T1 sequence (P19438 30-455): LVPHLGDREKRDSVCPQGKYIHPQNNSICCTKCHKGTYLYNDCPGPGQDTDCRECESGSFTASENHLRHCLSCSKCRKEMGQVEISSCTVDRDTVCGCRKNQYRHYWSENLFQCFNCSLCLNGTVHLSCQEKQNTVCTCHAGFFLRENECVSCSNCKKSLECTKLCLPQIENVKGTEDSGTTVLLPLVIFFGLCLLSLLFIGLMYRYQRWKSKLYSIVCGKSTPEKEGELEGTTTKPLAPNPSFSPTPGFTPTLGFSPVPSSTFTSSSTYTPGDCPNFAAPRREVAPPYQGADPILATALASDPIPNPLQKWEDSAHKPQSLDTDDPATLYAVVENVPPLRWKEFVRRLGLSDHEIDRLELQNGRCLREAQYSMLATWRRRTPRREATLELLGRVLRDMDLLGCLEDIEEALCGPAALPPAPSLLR
Method in brief: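 THP-1 Lucia NF-κB cells, 20k/well, no selection antibiotics; peptide pre-inc 1 h 37 °C; + recombinant human TNFα 10 ng/mL final; o.n.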

[2] = target: T2, human soluble TNFR1 (sTNFR1) (Homo sapiens, UniProt P19438); experiment: Human sTNFR1-peptide displacement assay (LanthaScreen Eu TR-FRET binding assay)
T2 construct: made in house; host or cells: Sf21 (baculovirus)
T2 sequence (P19438 with tags, fused parts or gaps): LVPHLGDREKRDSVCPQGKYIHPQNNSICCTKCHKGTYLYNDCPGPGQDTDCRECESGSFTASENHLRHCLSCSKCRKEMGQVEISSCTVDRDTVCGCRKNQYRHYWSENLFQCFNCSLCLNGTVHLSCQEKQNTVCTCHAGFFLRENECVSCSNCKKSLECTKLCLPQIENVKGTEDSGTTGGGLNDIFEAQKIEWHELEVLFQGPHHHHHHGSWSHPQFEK
Method in brief: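 Readout is the 665/615 nm TR-FRET ratio (Eu anti-His donor, streptavidin-Alexa647 acceptor), normalized to DMSO and saturating displacer, fit by Morrison-based five-parameter logistic for Kd^app. His-tagged sTNFR1 (1-211) prebound to 100 nM biotinylated peptide SEQ ID NO.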

SMILES | pIC50 [1] | pKd ([2]; displacement of biotinylated peptide SEQ ID NO. 1 from sTNFR1, 20 point titration, 5-parameter fit based on Morrison equation (tight binding), read-out: TR-FRET Kd^app) | pIC50 [2] | pKd [2]
CCCC[C@@H]1NC(=O)[C@@H]2CC[C@@H](C2)NC(=O)[C@H]([C@@H](C)c2c[nH]c3c(OC)cccc23)NC(=O)CN(C)C(=O)[C@H](Cc2ccc(OCC(=O)O)cc2)NC(=O)[C@H](Cc2ccc(S(N)(=O)=O)cc2)NC(=O)[C@](C)(CO)NC(=O)[C@H](Cc2c[nH]c3c(C#N)cccc23)NC(=O)[C@H](Cc2ccc(OCC(=O)O)cc2)NC(=O)[C@H](CC(N)=O)NC(=O)[C@H]2C[C@H]([N+](C)(C)C)CN2C(=O)[C@H](Cc2c[nH]c3ncccc23)NC(=O)[C@@H]2CC[C@@H](O)CN2C(=O)[C@H](Cc2ccncc2)NC1=O [SEQ ID NO. 257] (cyclo([4Pal][Pip(5R-OH)][Trp(7-aza)][dPro(trans-4-NMe3+)]NY(Carboxymethyl)[Trp(7-CN)][αMeS][Phe(4-SO2NH2)]Y(Carboxymethyl)[Sar][Trp(βS-Me,7-OMe)][X1][Nle])) | 9.40 | 10.10 | – | –
CCCC[C@@H]1NC(=O)CSC[C@@H](C(N)=O)NC(=O)[C@H]([C@@H](C)c2c[nH]c3c(OC)cccc23)NC(=O)CN(C)C(=O)[C@H](Cc2ccc(O)cc2)NC(=O)[C@H](Cc2ccc(C(N)=O)cc2)NC(=O)[C@](C)(CO)NC(=O)[C@H](Cc2c[nH]c3c(Cl)cccc23)NC(=O)[C@H](Cc2ccncc2)NC(=O)[C@H](CC(N)=O)NC(=O)[C@@H](C)N(CC)C(=O)[C@H](Cc2c[nH]c3ccccc23)NC(=O)[C@@H]2CC[C@@H](O)CN2C(=O)[C@H](Cc2ccncc2)NC1=O [SEQ ID NO. 186] ({CH2CO}-[Nle][4Pal][Pip(5R-OH)]W[X40]N[4Pal][Trp(7-Cl)][αMeS][Phe(4-CONH2)]Y[Sar][Trp(βS-Me,7-OMe)]C-NH2; thioether N-14) | 8.72 | – | 9.30 | 9.38
CCCC[C@@H]1NC(=O)[C@@H]2CC[C@@H](C2)NC(=O)[C@H]([C@@H](C)c2c[nH]c3c(OC)cccc23)NC(=O)CN(C)C(=O)[C@H](Cc2ccc(C(=O)O)c(Cl)c2)NC(=O)[C@H](Cc2ccc(C(N)=O)cc2)NC(=O)[C@](C)(CO)NC(=O)[C@H](Cc2c[nH]c3c(C#N)cccc23)NC(=O)[C@H](Cc2ccc(C(=O)O)c(Cl)c2)NC(=O)[C@H](CC(N)=O)NC(=O)[C@H]2C[C@H](O)CN2C(=O)[C@H](Cc2c[nH]c3ccccc23)NC(=O)[C@@H]2CC[C@@H](O)CN2C(=O)[C@H](Cc2ccncc2)NC1=O [SEQ ID NO. 207] (cyclo([4Pal][Pip(5R-OH)]W[dHyp]N[X62][Trp(7-CN)][αMeS][Phe(4-CONH2)][X62][Sar][Trp(βS-Me,7-OMe)][X1][Nle])) | 9.00 | – | – | 9.92
CCCC[C@@H]1NC(=O)[C@@H]2CC[C@@H](C2)NC(=O)[C@H]([C@@H](C)c2c[nH]c3c(OC)cccc23)NC(=O)CN(C)C(=O)[C@H](Cc2ccc(O)cc2)NC(=O)[C@H](Cc2ccc(C(=O)O)cc2)NC(=O)[C@](C)(CO)NC(=O)[C@H](Cc2c[nH]c3c(Cl)cccc23)NC(=O)[C@H](Cc2ccncc2)NC(=O)[C@H](CC(N)=O)NC(=O)[C@H](CCC(=O)O)N(C)C(=O)[C@H](Cc2c[nH]c3ccccc23)NC(=O)[C@@H]2CNCCN2C(=O)[C@H](Cc2ccncc2F)NC1=O [SEQ ID NO. 201] (cyclo([4Pal][Trp(7-Cl)][αMeS][Phe(4-COOH)]Y[Sar][Trp(βS-Me,7-OMe)][X1][Nle][X53][Pip(4-aza)]W[NMeE]N)) | 9.05 | – | – | 9.68
CCCC[C@@H]1NC(=O)[C@@H]2CC[C@@H](C2)NC(=O)[C@H]([C@@H](C)c2c[nH]c3c(OC)cccc23)NC(=O)CN(C)C(=O)[C@H](Cc2ccc(C(=O)O)cc2)NC(=O)[C@H](Cc2ccc(C(N)=O)cc2)NC(=O)[C@](C)(CO)NC(=O)[C@H](Cc2c[nH]c3c(C#N)cccc23)NC(=O)[C@H](Cc2ccncc2)NC(=O)[C@H]([C@H](O)C(N)=O)NC(=O)[C@H]2C[C@H](O)CN2C(=O)[C@H](Cc2c[nH]c3ccccc23)NC(=O)[C@@H]2CC[C@@H](O)CN2C(=O)[C@H](Cc2ccncc2)NC1=O [SEQ ID NO. 25] (cyclo([4Pal][Trp(7-CN)][αMeS][Phe(4-CONH2)][Phe(4-COOH)][Sar][Trp(βS-Me,7-OMe)][X1][Nle][4Pal][Pip(5R-OH)]W[dHyp][Asn(3S-OH)])) | 9.10 | – | – | 10.40

From patent US20240287138A1, “CYCLIC PEPTIDES FOR INHIBITING TNF RECEPTOR 1 ACTIVITY” (Merck Sharp & Dohme LLC, priority 2023, published 2024)
